From ChEMBL document CHEMBL5726269, “Phosphonate compounds for treatment of complement mediated disorders” (2017)
pIC50: −log10 of the molar value.

Molecular target: Complement factor D (Homo sapiens, UniProt P00746)
Experiment: Human Factor D Assay: Human factor D (purified from human serum, Complement Technology, Inc.) at 80 nM final concentration is incubated with test compound at various concentrations for 5 minutes at room temperature in 50 mM Tris, 1M NaCl, pH 7.5. A synthetic substrate Z-L-Lys-SBzl and DTNB (Ellman's reagent) are added to final concentrations of 100 μM each. The increase in color is recorded at OD405 nm in a microplate in kinetic mode over 30 minutes with 30 second time points in a spectrofluorimeter. IC50 values are calculated by non-linear regression from the percentage of inhibition of complement factor D activity as a function of test compound concentration.

Chain of Complement factor D (P00746 whole entry): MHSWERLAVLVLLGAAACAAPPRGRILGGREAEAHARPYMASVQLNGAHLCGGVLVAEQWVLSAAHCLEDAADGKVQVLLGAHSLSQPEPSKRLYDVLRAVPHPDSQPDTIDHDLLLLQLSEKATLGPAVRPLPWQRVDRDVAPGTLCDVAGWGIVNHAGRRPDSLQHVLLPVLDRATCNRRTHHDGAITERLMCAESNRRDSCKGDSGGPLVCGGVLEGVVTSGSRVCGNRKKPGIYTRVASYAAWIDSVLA

With `CC(=O)c1cn(CC(=O)N2C[C@H](F)C[C@H]2C(=O)NCc2cccc(Cl)c2F)c2cc(P(=O)(Oc3ccccc3)Oc3ccccc3)ccc12` as the compound, how does the pIC50 read?
The pIC50 was over 6.00.
